# Legend:
# [1] = target: T1, PI3Kγ (Mus musculus, UniProt Q9JHG7); test: ELISA assay for PI3Kγ: in-cell ELISA, phosphorylation of AKT (Ser473) in RAW 264.7 cells; assay type: cell-based; details: cellular, pAKT (Ser473), C5a stimulation, read-out: IC50 p110γ
# T1 construct: endogenous in cells; host or cells: RAW 264.7 (ATCC #TIB-71)
# Procedure: PI3K gamma (PI3Kγ) activity was determined by measuring the phosphorylation of AKT (Ser473) using an in-cell ELISA assay. RAW 264.7 (mouse macrophage) cells were obtained from ATCC (ATCC #TIB-71). Growth medium was DMEM (CellGro #CV-10-013-CV) supplemented with 10% fetal bovine serum, 100 IU/mL penicillin, 100 μg/mL streptomycin, and 1×MEM non-essential amino acids. Phosphate buffered saline (PBS) contained 2.7 M NaCl, 54 mM KCl, 86 mM […] (dibasic, anhydrous), and 28 mM […] (monobasic, anhydrous) at pH 7.2. Stimulation mixture (10×) was 500 ng/mL recombinant human complement component C5a (R&D systems #2037-C5-025) diluted in serum-free DMEM medium (CellGro #CV-10-013-CV). Compounds for testing were dissolved and serially diluted in 100% DMSO (total of 10 concentrations), then diluted in serum-free DMEM to 2× final assay concentration. Fixative solution (2×) was 8% formaldehyde (Amresco #M134) diluted in PBS. Permeabilization solution was PBS supplemented with 0.10% Triton X-100. Blocking buffer was obtained from LiCor (LiCor #927-40000). Wash buffer was PBS supplemented with 0.1% Tween-20. Primary antibody solution was rabbit anti-pAKT^S473 monoclonal antibody (Cell Signaling #4060) and mouse anti-total S6 (Santa Cruz #74459) diluted 1:500 and 1:2000, respectively, in the blocking buffer. Secondary antibody solution was IRDye 800CW-conjugated goat anti-rabbit IgG (LiCor #926-32211) and IRDye 680LT-conjugated goat anti-mouse IgG (LiCor #926-68020) diluted 1:1000 and 1:2000, respectively, in the blocking buffer.
# (§1) RAW 264.7 cells were subcultured in growth medium and seeded into flat, clear bottom, 96-well plates (Corning #3904) at 70000 cells/well, then incubated overnight in a 37° C., 5% CO2 incubator. Growth medium in plates was replaced with 100 μL/well serum-free DMEM and incubated overnight in a 37° C., 5% CO2 incubator. Fresh serum-free DMEM (50 μL/well) was added to plates. Compound treatment was performed by adding 50 μL/well of 2× compound mixture to plates and incubating for 2 hrs at 37° C., 5% CO2, after which 11 μL/well of 10× stimulation mixture was added and plates were incubated for 3 min at 37° C., 5% CO2. Fixation was performed by adding 110 μL/well of 2× fixative solution to plates and incubating for 20 min at room temperature. Permeabilization was performed by replacing fixation solution with 150 μL/well permeabilization solution and incubating for 10 min at room temperature. Permeabilization was repeated (for a total of 2 times). Permeabilization solution was replaced with 100 μL/well blocking buffer and plates were incubated for 1 hr at room temperature, after which 100 μL/well of primary antibody solution was added and plates were incubated overnight at 4° C. Plates were washed with wash buffer, after which 100 μL/well of secondary antibody solution was added to the plates and incubated in the dark for 1 hr at room temperature. Plates were washed with wash buffer, followed by awash with PBS. After completely removing PBS, plates were scanned on the Licor Odyssey Imager. Images were quantified using Licor Odyssey application software. IC50 values were determined by curve fitting using a Collaborative Drug Discovery database (www.collaborativedrug.com).
# [2] = target: T2, PI3Kβ (Homo sapiens, UniProt P42338); test: ELISA assay for PI3Kβ: in-cell ELISA, phosphorylation of AKT (Ser473) in PC-3 cells; assay type: cell-based; details: for IC50: cellular, pAKT (Ser473), PC-3 cells, LPA stimulation, read-out: IC50 p110β; for α/β ratio: ratio of cellular IC50 values, Table 2
# T2 construct: endogenous in cells; host or cells: PC-3 (ATCC #CRL-1435)
# T2 sequence (P42338 whole entry): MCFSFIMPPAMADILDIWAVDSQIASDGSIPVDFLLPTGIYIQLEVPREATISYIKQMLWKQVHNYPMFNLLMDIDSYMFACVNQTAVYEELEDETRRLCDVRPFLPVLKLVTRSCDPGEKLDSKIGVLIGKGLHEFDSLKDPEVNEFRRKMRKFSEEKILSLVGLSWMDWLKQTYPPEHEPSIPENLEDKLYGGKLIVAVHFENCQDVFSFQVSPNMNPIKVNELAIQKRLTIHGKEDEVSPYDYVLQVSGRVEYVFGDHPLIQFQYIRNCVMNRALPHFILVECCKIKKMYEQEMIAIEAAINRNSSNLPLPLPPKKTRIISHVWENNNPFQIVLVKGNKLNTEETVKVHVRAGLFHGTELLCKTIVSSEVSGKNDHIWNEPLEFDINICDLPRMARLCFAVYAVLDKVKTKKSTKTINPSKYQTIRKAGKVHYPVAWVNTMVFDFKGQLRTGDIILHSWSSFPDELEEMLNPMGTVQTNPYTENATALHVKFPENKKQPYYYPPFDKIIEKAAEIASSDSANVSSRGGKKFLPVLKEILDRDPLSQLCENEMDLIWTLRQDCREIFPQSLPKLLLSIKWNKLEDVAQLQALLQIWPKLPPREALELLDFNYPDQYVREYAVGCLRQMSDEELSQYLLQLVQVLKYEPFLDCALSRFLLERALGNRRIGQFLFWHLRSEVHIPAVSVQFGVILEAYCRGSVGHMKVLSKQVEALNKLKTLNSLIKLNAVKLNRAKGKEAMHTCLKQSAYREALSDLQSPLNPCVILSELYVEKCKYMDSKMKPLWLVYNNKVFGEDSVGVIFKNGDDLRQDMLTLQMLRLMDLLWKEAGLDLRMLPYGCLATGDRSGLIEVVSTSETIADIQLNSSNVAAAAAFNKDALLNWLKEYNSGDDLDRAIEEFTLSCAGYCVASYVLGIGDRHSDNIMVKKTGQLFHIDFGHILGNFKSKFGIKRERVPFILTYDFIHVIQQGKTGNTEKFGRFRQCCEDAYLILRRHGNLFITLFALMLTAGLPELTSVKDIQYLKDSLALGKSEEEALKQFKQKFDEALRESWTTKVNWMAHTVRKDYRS
# T2 sequence (P27986 whole entry partner): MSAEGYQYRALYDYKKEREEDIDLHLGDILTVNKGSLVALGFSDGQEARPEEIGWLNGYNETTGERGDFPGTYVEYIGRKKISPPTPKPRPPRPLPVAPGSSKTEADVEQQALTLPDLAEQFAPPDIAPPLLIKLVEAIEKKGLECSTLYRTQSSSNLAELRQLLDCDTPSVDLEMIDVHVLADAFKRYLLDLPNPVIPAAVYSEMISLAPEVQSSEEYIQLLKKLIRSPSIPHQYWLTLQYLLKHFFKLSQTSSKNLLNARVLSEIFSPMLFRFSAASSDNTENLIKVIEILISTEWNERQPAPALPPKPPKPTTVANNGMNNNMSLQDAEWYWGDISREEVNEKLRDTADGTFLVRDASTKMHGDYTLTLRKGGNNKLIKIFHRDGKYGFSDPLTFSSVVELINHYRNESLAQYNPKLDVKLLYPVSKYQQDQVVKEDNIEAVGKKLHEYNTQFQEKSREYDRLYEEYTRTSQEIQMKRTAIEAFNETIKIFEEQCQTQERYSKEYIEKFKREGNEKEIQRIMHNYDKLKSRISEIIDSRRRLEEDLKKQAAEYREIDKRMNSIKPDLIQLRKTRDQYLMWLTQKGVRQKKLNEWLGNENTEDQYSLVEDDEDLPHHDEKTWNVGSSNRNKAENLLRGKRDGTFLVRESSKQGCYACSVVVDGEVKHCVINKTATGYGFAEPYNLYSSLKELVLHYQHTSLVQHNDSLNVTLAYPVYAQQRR
# Procedure: Cellular PI3Kβ activity was determined by measuring the phosphorylation of AKT (Ser473) using an in-cell ELISA assay. PC-3 (prostate carcinoma) cells were obtained from ATCC (ATCC #CRL-1435). Growth medium was DMEM (CellGro #CV-10-013-CV) supplemented with 10% fetal bovine serum, 100 IU/mL penicillin, 100 μg/mL streptomycin, and 1×MEM non-essential amino acids. Phosphate buffered saline (PBS) contained 2.7 M NaCl, 54 mM KCl, 86 mM […] (dibasic, anhydrous), 28 mM […] (monobasic, anhydrous), pH 7.2, 10× stimulation mixture contained 50 μM LPA (Cayman #62215) diluted in serum-free DMEM medium (CellGro #CV-10-013-CV). Compounds for testing were dissolved and serially diluted in 100% DMSO (total of 10 concentrations), then diluted in serum-free DMEM to 2× final assay concentration. 2× fixative solution contained 8% formaldehyde (Amresco #M134) diluted in PBS. Permeabilization solution contained PBS supplemented with 0.1% Triton X-100. Blocking buffer was obtained from LiCor (LiCor #927-40000). Wash buffer contained PBS supplemented with 0.1% Tween-20. Primary antibody solution was rabbit anti-pAKT^S473 monoclonal antibody (Cell Signaling #4060) and mouse anti-total S6 (Santa Cruz #74459) diluted 1:500 and 1:2000, respectively, in blocking buffer. Secondary antibody solution was IRDye 800CW-conjugated goat anti-rabbit IgG (LiCor #926-32211) and IRDye 680LT-conjugated goat anti-mouse IgG (LiCor #926-68020) diluted 1:2000 and 1:1000, respectively, in blocking buffer.
# as §1, with “PC-3 cells” for “RAW 264.7 cells”, “at 16000” for “at 70000”, “incubator. 50 μL/well of fresh” for “incubator. Fresh”, “DMEM” for “DMEM (50 μL/well)”, “for 10” for “for 3”, “Images” for “Images were”
# T1 sequence (Q9JHG7 whole entry): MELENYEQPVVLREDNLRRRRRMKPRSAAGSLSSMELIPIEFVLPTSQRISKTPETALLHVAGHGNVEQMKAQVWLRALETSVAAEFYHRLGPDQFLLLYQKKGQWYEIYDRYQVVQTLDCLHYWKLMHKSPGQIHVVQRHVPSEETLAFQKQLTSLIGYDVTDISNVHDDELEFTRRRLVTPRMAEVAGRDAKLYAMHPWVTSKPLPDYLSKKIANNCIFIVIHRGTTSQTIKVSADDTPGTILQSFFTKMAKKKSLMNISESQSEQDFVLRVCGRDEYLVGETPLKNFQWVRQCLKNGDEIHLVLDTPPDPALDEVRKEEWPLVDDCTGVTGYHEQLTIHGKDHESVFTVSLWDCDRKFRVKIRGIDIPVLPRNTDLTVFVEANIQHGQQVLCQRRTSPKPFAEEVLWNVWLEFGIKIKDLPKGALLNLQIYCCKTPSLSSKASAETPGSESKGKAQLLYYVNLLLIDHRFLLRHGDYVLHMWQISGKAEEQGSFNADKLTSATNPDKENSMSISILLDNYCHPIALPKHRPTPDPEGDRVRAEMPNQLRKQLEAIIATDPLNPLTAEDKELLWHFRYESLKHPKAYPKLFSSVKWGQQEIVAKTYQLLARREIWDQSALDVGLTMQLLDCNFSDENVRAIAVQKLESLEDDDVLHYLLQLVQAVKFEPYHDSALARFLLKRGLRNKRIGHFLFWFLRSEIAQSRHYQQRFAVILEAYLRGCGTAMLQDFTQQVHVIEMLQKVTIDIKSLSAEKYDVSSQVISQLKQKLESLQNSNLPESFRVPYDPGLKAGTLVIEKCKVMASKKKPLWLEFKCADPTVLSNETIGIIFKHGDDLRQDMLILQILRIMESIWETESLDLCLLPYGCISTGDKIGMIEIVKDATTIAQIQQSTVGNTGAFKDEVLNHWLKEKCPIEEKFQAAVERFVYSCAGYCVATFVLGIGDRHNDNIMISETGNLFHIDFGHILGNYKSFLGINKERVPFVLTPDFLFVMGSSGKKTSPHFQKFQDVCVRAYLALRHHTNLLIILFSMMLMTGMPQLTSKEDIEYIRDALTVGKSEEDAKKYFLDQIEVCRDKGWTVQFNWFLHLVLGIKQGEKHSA
Compound,IC50 [1],IC50 [2],α/β ratio [2]
"CC(C)(Cc1ccccc1-c1cccc(CN2CCOCC2)c1)Nc1nc(N2CCOCC2)nc(-n2c(C(F)F)nc3ccccc32)n1 [Compound A65, 4-(2-(difluoromethyl)-1H-benzo[d]imidazol-1-yl)-N-(2-methyl-1-(3′-(morpholinomethyl)biphenyl-2-yl)propan-2-yl)-6-morpholino-1,3,5-triazin-2-amine]",200 to 500 nM,≤ 100 nM,A’
"COc1cccc(-c2ccccc2CC(C)(C)Nc2nc(N3CCOCC3)nc(-n3c(C(F)F)nc4ccccc43)n2)c1 [Compound A66, 4-(2-(difluoromethyl)-1H-benzo[d]imidazol-1-yl)-N-(1-(3′-methoxybiphenyl-2-yl)-2-methylpropan-2-yl)-6-morpholino-1,3,5-triazin-2-amine]",> 500 nM,100 to 200 nM,A’
"COc1ccc(-c2ccccc2CC(C)(C)Nc2nc(N3CCOCC3)nc(-n3c(C(F)F)nc4ccccc43)n2)cc1 [Compound A67, 4-(2-(difluoromethyl)-1H-benzo[d]imidazol-1-yl)-N-(1-(4′-methoxybiphenyl-2-yl)-2-methylpropan-2-yl)-6-morpholino-1,3,5-triazin-2-amine]",> 500 nM,200 to 500 nM,A’
"CC(C)(Cc1ccccc1C1CCNCC1)Nc1nc(N2CCOCC2)nc(-n2c(C(F)F)nc3ccccc32)n1 [Compound A68, 4-(2-(difluoromethyl)-1H-benzo[d]imidazol-1-yl)-N-(2-methyl-1-(2-(piperidin-4-yl)phenyl)propan-2-yl)-6-morpholino-1,3,5-triazin-2-amine]",200 to 500 nM,≤ 100 nM,A’
"CC(C)(Cc1ccccc1C1CCN(S(C)(=O)=O)CC1)Nc1nc(N2CCOCC2)nc(-n2c(C(F)F)nc3ccccc32)n1 [Compound A73, 4-(2-(difluoromethyl)-1H-benzo[d]imidazol-1-yl)-N-(2-methyl-1-(2-(1-(methylsulfonyl)piperidin-4-yl)phenyl)propan-2-yl)-6-morpholino-1,3,5-triazin-2-amine]",≤ 100 nM,≤ 100 nM,A’
"CC(C)(Cc1ccccc1C1CCNC1)Nc1nc(N2CCOCC2)nc(-n2c(C(F)F)nc3ccccc32)n1 (stereo not drawn) [Compound A74, 4-(2-(difluoromethyl)-1H-benzo[d]imidazol-1-yl)-N-(2-methyl-1-(2-(pyrrolidin-3-yl)phenyl)propan-2-yl)-6-morpholino-1,3,5-triazin-2-amine]",200 to 500 nM,≤ 100 nM,A’
"CN1CCC(c2ccccc2CC(C)(C)Nc2nc(N3CCOCC3)nc(-n3c(C(F)F)nc4ccccc43)n2)C1 (stereo not drawn) [Compound A75, 4-(2-(difluoromethyl)-1H-benzo[d]imidazol-1-yl)-N-(2-methyl-1-(2-(1-methylpyrrolidin-3-yl)phenyl)propan-2-yl)-6-morpholino-1,3,5-triazin-2-amine]",100 to 200 nM,≤ 100 nM,A’
"CN(C)CCCc1ccccc1CC(C)(C)Nc1nc(N2CCOCC2)nc(-n2c(C(F)F)nc3ccccc32)n1 [Compound A76, 4-(2-(difluoromethyl)-1H-benzo[d]imidazol-1-yl)-N-(1-(2-(3-(dimethylamino)propyl)phenyl)-2-methylpropan-2-yl)-6-morpholino-1,3,5-triazin-2-amine]",> 500 nM,≤ 100 nM,A’

# Results, then the compound that gave them:
IC50 [1],IC50 [2],α/β ratio [2],Compound
> 500 nM,≤ 100 nM,A’,"CCN1CCC(c2ccccc2CC(C)(C)Nc2nc(N3CCOCC3)nc(-n3c(C(F)F)nc4ccccc43)n2)CC1 [Compound A70, 4-(2-(difluoromethyl)-1H-benzo[d]imidazol-1-yl)-N-(1-(2-(1-ethylpiperidin-4-yl)phenyl)-2-methylpropan-2-yl)-6-morpholino-1,3,5-triazin-2-amine]"
> 500 nM,≤ 100 nM,A’,"CC(C)N1CCC(c2ccccc2CC(C)(C)Nc2nc(N3CCOCC3)nc(-n3c(C(F)F)nc4ccccc43)n2)CC1 [Compound A71, 4-(2-(difluoromethyl)-1H-benzo[d]imidazol-1-yl)-N-(1-(2-(1-isopropylpiperidin-4-yl)phenyl)-2-methylpropan-2-yl)-6-morpholino-1,3,5-triazin-2-amine]"
≤ 100 nM,≤ 100 nM,A’,"CC(=O)N1CCC(c2ccccc2CC(C)(C)Nc2nc(N3CCOCC3)nc(-n3c(C(F)F)nc4ccccc43)n2)CC1 [Compound A72, 4-(2-(difluoromethyl)-1H-benzo[d]imidazol-1-yl)-N-(2-methyl-1-(2-(1-acetylpiperidin-4-yl)phenyl)propan-2-yl)-6-morpholino-1,3,5-triazin-2-amine]"
